The record followed here is PubChem BioAssay AID624405 (Broad Institute, 2012).

This experiment concerns C2C12 myotubes + simvastatin, ATP luminescence, 48 h. The experiment is described as follows: rescue of simvastatin-induced ATP loss – cell-based, C2C12 myotubes, ATP luminescence, cherry pick, dose response (AID 624405).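 Note: myotubes are challenged with simvastatin at 10 µM to lower ATP.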

Inconclusive results are not listed. Some results are limits rather than exact numbers.

Regarding `C[C@H](CO)N1C[C@H](C)[C@@H](CN(C)Cc2ccc(Cl)c(Cl)c2)Oc2ccc(NC(=O)C3CC3)cc2CC1=O`, the AC40 is 1.23 µM.
`C[C@H](CO)N1C[C@H](C)[C@@H](CN(C)Cc2ccc(Cl)c(Cl)c2)Oc2ccc(NS(=O)(=O)c3ccc(F)cc3)cc2CC1=O`: the AC40 is 19 µM.
For `C[C@H](CO)N1C[C@H](C)[C@@H](CN(C)Cc2ccc(Cl)c(Cl)c2)Oc2ccc(NS(=O)(=O)c3cn(C)cn3)cc2CC1=O` the value was 5.29 µM; for `C[C@@H]1CN([C@H](C)CO)C(=O)Cc2cc(NC(=O)CCCCCC(=O)Nc3ccccc3N)ccc2O[C@@H]1CN(C)Cc1ccc(Cl)c(Cl)c1`, 9.57 µM; for `COc1ccc(-n2c(C)cc(C=O)c2C)cc1Cl`, 9.14 µM.
Take `CS(=O)(=O)N1CCN(C(=O)c2cc(-c3ccncc3)nc3ccc(Cl)cc23)CC1`: the AC40 is 11.4 µM.
For `COc1ccccc1C(=O)Nc1ccc2c(c1)OCO2` the value was 4.38 µM; for `C[C@@H]1CN([C@H](C)CO)C(=O)c2cccc(NC(=O)Nc3ccc4c(c3)OCO4)c2O[C@H]1CN(C)Cc1ccc(C(=O)Nc2ccccc2N)cc1`, 0.893 µM; for `Cc1ccc(S(=O)(=O)N2CCN(S(=O)(=O)c3ccc(C)cc3)C2c2ccccc2)cc1`, 18.6 µM.
Regarding `CCCn1c(NC(=O)c2ccco2)nc2ccccc21`, the AC40 was 1.39 µM.
For `O=C(Nc1ccc2nc3n(c(=O)c2c1)CCCCC3)c1c(F)ccc([N+](=O)[O-])c1F` the value was 4.3 µM.
As for `Cc1ccc(S(=O)(=O)Nc2ccc3c(c2)CC(=O)N([C@@H](C)CO)C[C@H](C)[C@@H](CN(C)Cc2ccc(-c4ccccc4)cc2)O3)cc1`, the AC40 is 18.9 µM.
As for `C[C@@H]1CN([C@@H](C)CO)C(=O)c2cccc(NC(=O)Nc3ccc4c(c3)OCO4)c2O[C@H]1CN(C)Cc1ccc(C(=O)Nc2ccccc2N)cc1`, the AC40 is 9.42 µM.
For `C[C@H](CO)N1C[C@H](C)[C@H](CN(C)Cc2ccc(C(=O)Nc3ccccc3N)cc2)Oc2ccc(NC(=O)Nc3ccc(F)cc3)cc2CC1=O` the value was 1.97 µM.
For `CCC(c1nnnn1C1CCCC1)N1CCN(c2ccccc2F)CC1` (configuration not stated) the value was 4.11 µM; for `Cc1csc(NC(=O)CSc2nc3[nH]c(=O)cc(O)c3s2)n1`, 4.2 µM.
For `O=S(=O)(NCc1ccco1)c1ccc(S(=O)(=O)N2CCCCC2)cc1` the value was 5.03 µM.
As to `O=C(C#Cc1ccccc1)Nc1cccc(F)c1`, the AC40 is 3.42 µM.
For `C[C@H]1CN([C@@H](C)CO)C(=O)c2cc(NC(=O)Nc3cccc4ccccc34)ccc2O[C@@H]1CN(C)Cc1ccc(C(=O)Nc2ccccc2N)cc1` the value was 17.7 µM.
In the case of `C=CCOc1ccc(Br)cc1/C=N/O`, the AC40 is 17.9 µM.
Take `CCCC(c1nnnn1Cc1ccc(OC)cc1)N1CCN(c2ccccc2)CC1` (configuration not stated): the AC40 was 5.18 µM.
As to `C[C@H]1CN([C@@H](C)CO)C(=O)Cc2cc(NC(=O)CCCCCC(=O)Nc3ccccc3N)ccc2O[C@H]1CN(C)Cc1ccc(Oc2ccccc2)cc1`, the AC40 is 3.86 µM.
Consider `COc1ccc(S(=O)(=O)Nc2ccc3c(c2)C(=O)N([C@@H](C)CO)C[C@H](C)[C@H](CN(C)S(=O)(=O)c2ccc(F)cc2)OCCCC[C@@H](C)O3)cc1`, for which the AC40 was 17.7 µM.
With `CC(C)OC(=O)N(C)C[C@@H]1OCc2ccccc2-c2c(n(C)c3ccccc23)C(=O)N([C@H](C)CO)C[C@H]1C`, the AC40 was 18.1 µM.
For `C[C@H](CO)N1C[C@H](C)[C@H](CN(C)Cc2ccc(C(=O)Nc3ccccc3N)cc2)Oc2ccc(NC(=O)Nc3cccc4ccccc34)cc2C1=O` the value was 8.83 µM.
For `N#C[C@@H]1[C@@H](c2ccccc2)[C@H](CO)N1S(=O)(=O)c1ccc(-c2ccccc2)cc1` the value was 8.78 µM; for `Cc1ccc(-c2nnc(CSc3nnc(COc4cccc5ccccc45)n3-c3ccccc3)o2)cc1`, 18.2 µM.
For `Cc1cccc(C(=O)Nc2cc(OCc3cccc(F)c3)c(Cl)cc2Cl)c1` the value was 15.9 µM; for `CC(C)(C)NC(=O)CN(C(=O)Cn1nnc(-c2ccccc2F)n1)c1cccc2c1CCCC2`, 19.4 µM.
On to `COc1ccc(Nc2nc3ccc(C)cn3c(=O)c2/C=N/O)cc1`, for which the AC40 was 15.2 µM.
For `Cc1ccc(S(=O)(=O)Nc2ccc3c(c2)C(=O)N([C@H](C)CO)C[C@H](C)[C@H](CN(C)Cc2ccc(C(=O)Nc4ccccc4N)cc2)O3)cc1` the value was 17 µM; for `Fc1ccccc1OCCCCn1cncn1`, 18.6 µM; for `CCOC(=O)N1CCN(C(=O)C(c2ccccc2)c2ccccc2)CC1`, 5.75 µM.
Turning to `CC1(Cc2ccc(Cl)cc2)C(=O)Nc2ccc(-c3cccnc3)cc21` (configuration not stated), the AC40 was 15.8 µM.
On to `Cc1nn2c3ccccc3n(Cc3ccccc3)c2nc1=O`, for which the AC40 is 19 µM.
For `O=C(NCc1ccco1)C1CCN(C(=O)c2cc3sccc3n2Cc2ccc(F)cc2)CC1` the value was 12.1 µM; for `CCCCCCn1c(C(C)O)nc2ccccc21` (configuration not stated), 1.94 µM.
For the molecule `Cc1noc(C)c1S(=O)(=O)Nc1ccc2c(c1)CC(=O)N([C@H](C)CO)C[C@@H](C)[C@H](CN(C)Cc1ccc(-c3ccccc3)cc1)O2`, the AC40 was 20.3 µM.
`CCOCCCN1CN(S(=O)(=O)c2ccc(Cl)cc2)c2nc3ccccc3nc21`: the AC40 is 1.87 µM.
With `c1coc(-c2nc3ccccc3s2)c1`, the AC40 was 18 µM.
For `COc1cc(OC)cc(-c2nnc(SCC(=O)N3CCCc4ccccc43)o2)c1` the value was 16.8 µM.
For `O=C(CCNS(=O)(=O)c1ccc(Br)cc1)NCc1ccc2c(c1)OCO2` the value was 14.8 µM.
Regarding `CCCNC(=O)Cc1c(O)c2ccccc2[nH]c1=O`, the AC40 was 18.6 µM.
For `C[C@H]1CN([C@@H](C)CO)C(=O)Cc2cc(NS(=O)(=O)c3ccc(Cl)cc3)ccc2O[C@@H]1CN(C)CC1CCCCC1` the value was 15.1 µM.
For `C[C@@H]1CN([C@@H](C)CO)C(=O)c2cc(NC(=O)Nc3cccc4ccccc34)ccc2O[C@H]1CN(C)Cc1ccc(C(=O)Nc2ccccc2N)cc1` the value was 15.2 µM; for `C[C@@H]1CN([C@@H](C)CO)C(=O)Cc2cc(NC(=O)CCCCCC(=O)Nc3ccccc3N)ccc2O[C@H]1CN(C)Cc1ccc(-c2ccccc2)cc1`, 10.7 µM.
For `Clc1ccc(Cn2ncc3c(N4CCCCC4)ncnc32)cc1` the value was 15.8 µM; for `C[C@@H]1CN([C@H](C)CO)C(=O)Cc2cc(NS(=O)(=O)c3ccc(Cl)cc3)ccc2O[C@H]1CN(C)Cc1ccccc1`, 4.44 µM.
As to `CCC(=O)/C=C1/Sc2ccccc2N1CC`, the AC40 was 7.21 µM.
Take `C[C@H](CO)N1C[C@H](C)[C@@H](CN(C)Cc2ccc(C(=O)Nc3ccccc3N)cc2)Oc2ccc(NC(=O)Nc3ccc4c(c3)OCO4)cc2CC1=O`: the AC40 is 11.7 µM.
For `COCc1nc2ccccc2n1CCCOc1ccccc1` the value was 13.4 µM; for `C[C@H](CO)N1C[C@H](C)[C@@H](CN(C)Cc2ccc(C(F)(F)F)cc2)Oc2ccc(NC(=O)CCCCCC(=O)Nc3ccccc3N)cc2CC1=O`, 8.51 µM.
For `C[C@H](CO)N1C[C@H](C)[C@@H](CN(C)Cc2ccc(Oc3ccccc3)cc2)Oc2ccc(NC(=O)C3CCCCC3)cc2CC1=O` the value was 8.63 µM; for `C[C@@H]1CN([C@@H](C)CO)C(=O)c2cc(NS(=O)(=O)c3ccc(Cl)cc3)ccc2O[C@H]1CN(C)C(=O)Nc1cccc2ccccc12`, 9.49 µM.
For `COc1ccc(S(=O)(=O)N2CCCCC2)cc1C(C)C`, the AC40 was 8.77 µM.
`N#CCCCSc1nnc(CSc2nc3ccccc3s2)n1-c1ccccc1`: the AC40 was 9.75 µM.
On to `CC1CCN(c2nc3c(c(=O)[nH]c(=O)n3C)n2CCCc2ccccc2)CC1`, for which the AC40 is 4.71 µM.
Take `CCCCn1c(C(C)NC(=O)c2cccs2)nc2ccccc21` (configuration not stated): the AC40 is 3.75 µM.
For `O=C1C[C@@H]2c3c(cccc3CN1Cc1ccccc1F)C[C@@H](O)[C@H]2O` the value was 17.2 µM.
For `Oc1ccc(-c2csc(Nc3ccc4c(c3)OCO4)n2)c(O)c1` the value was 10.5 µM; for `O=C(CCCSc1nc(-c2ccco2)cc(C(F)(F)F)n1)NCc1cccs1`, 15.1 µM.
For `Cc1onc(-c2ccccc2Cl)c1C(=O)NCc1nc(-c2ccccc2)no1` the value was 8.26 µM; for `C[C@@H]1CN([C@H](C)CO)C(=O)c2cc(NC(=O)Cc3cn(C)c4ccccc34)ccc2O[C@@H]1CN(C)Cc1ccc(C(=O)Nc2ccccc2N)cc1`, 9.69 µM.
Consider `Cc1ccc(C2(c3ccc(C)cc3)NC(=O)N(Cc3c(C)noc3C)C2=O)cc1`, for which the AC40 was 5.45 µM.
Turning to `O=C(NCc1ccco1)c1cc2sccc2n1Cc1ccc(F)cc1`, the AC40 was 16.4 µM.
For `CC(C)CC#Cc1cnc2c(c1)C(=O)N([C@H](C)CO)C[C@H](C)[C@@H](CN(C)C(=O)Cc1ccccc1)O2` the value was 9.7 µM; for `C[C@H](CO)N1C[C@H](C)[C@@H](CN(C)Cc2ccc(Cl)c(Cl)c2)Oc2ccc(NS(C)(=O)=O)cc2CC1=O`, 9.83 µM; for `O=C(Nc1cccc(O)c1)c1cc(-c2cccs2)on1`, 5.99 µM.
Regarding `C[C@H](CO)N1C[C@H](C)[C@H](CN(C)Cc2ccc3c(c2)OCO3)Oc2ccc(NC(=O)CCCCCC(=O)Nc3ccccc3N)cc2CC1=O`, the AC40 is 14.9 µM.
`CC(=O)Nc1nc2n(n1)C(c1ccc(F)cc1)C=C(c1ccccc1)N2` (configuration not stated): the AC40 is 1.77 µM.
For `CN(c1ccc(Cl)cc1)c1cc(=O)n(C)c2ccccc12` the value was less than 0.16 µM.
On to `CC1Cc2ccccc2N1C(=O)CSc1nnc(Cc2ccccc2)n1CCc1ccccc1` (configuration not stated), for which the AC40 was 8.6 µM.
Consider `O=C(CNc1cccc(F)c1)N1CCc2ccccc2C1`, for which the AC40 was 3.26 µM.
For `Cc1noc2ncnc(Sc3ccc(Cl)cc3)c12` the value was 3.11 µM; for `CCn1c(CNc2ccc(F)cc2)nnc1SCC(=O)Nc1ccc(OC)cc1`, 5.81 µM.
For `CN1C(=O)c2ccc(N(C)C)cc2C1=O`, the AC40 was 9.68 µM.
For the molecule `C[C@H]1CN([C@@H](C)CO)C(=O)Cc2cc(NC(=O)CCCCCC(=O)Nc3ccccc3N)ccc2O[C@H]1CN(C)Cc1ccccc1`, the AC40 was 3.02 µM.
`O=c1[nH]ncc2c3ccccc3n(Cc3ccccc3)c12`: the AC40 was 5.26 µM.
As to `OC(c1cccc(OCc2ccccc2)c1)c1nnc(-c2ccccc2)o1` (configuration not stated), the AC40 was 5.24 µM.
Turning to `NC1=NC(=Nc2ccccc2)c2ccccc21`, the AC40 was 16.3 µM.
For `C[C@H](CO)N1C[C@H](C)[C@H](CN(C)C(=O)Nc2ccc(F)cc2)Oc2ncc(C#Cc3ccc(C(F)(F)F)cc3)cc2C1=O` the value was 13.5 µM; for `CCOC(=O)N1CCN(C(=O)COc2ccc(S(=O)(=O)NC3CCCCC3)cc2C)CC1`, 14.1 µM.
